In patent US9714231B2, “Pyrrolidine GPR40 modulators” (BRISTOL-MYERS SQUIBB COMPANY, priority 2012, dated 2017) one finds EC50 data, which are given here for four molecules.

Each structure is given as a SMILES string. Where a name gives a salt, the structure may show the parent alone. Read-outs that look alike come from different tables or passages of the source.

For test [1], the target named is T1, human GPR40 (Homo sapiens, UniProt O14842). Put plainly: FDSS-based intracellular calcium assay (Human GRP40 in vitro assay). It is filed as cell-based. Also on record: 3xFLAG; expressed in transfected cells. As to conditions: cells expressing GPR40, intracellular Ca2+ response, FDSS reader; read-out: hGPR40 EC50. A digest of the protocol:
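GPR40-expressing cells, plated overnight in serum-free phenol red-free DMEM, loaded with Fluo-3 in HBSS with 1.7 mM probenecid for 30 min at 37° C. Compounds in DMSO, diluted in assay buffer, added as 3× solutions; intracellular Ca^2+ response read on FDSS.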

Test [2] deals with T1, human GPR40.

T1 sequence (O14842 whole entry): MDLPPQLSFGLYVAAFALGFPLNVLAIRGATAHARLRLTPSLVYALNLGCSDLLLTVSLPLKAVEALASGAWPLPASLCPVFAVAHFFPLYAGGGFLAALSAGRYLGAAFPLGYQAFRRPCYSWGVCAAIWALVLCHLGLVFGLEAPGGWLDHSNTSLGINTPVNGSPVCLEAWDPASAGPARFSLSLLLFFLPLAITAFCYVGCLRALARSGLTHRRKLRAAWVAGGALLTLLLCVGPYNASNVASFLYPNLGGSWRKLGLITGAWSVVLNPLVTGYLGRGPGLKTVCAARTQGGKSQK

For the molecule `COc1ccc(C2CCCC2(C)C)c(N2CCC(Oc3ccc(N4C[C@H](OC)C[C@@H]4CC(=O)O)cc3)CC2)c1` (single isomer, unassigned) [Example 65, Isomer 1], the EC50 on human GPR40 [1] turned out to be 33 nM; at human GPR40 [2] it was 10 nM.
`COc1cc(N2CCC(Oc3cc(F)c(N4C[C@H](OC)C[C@@H]4CC(=O)O)c(F)c3)C(C)C2)c(Cl)cn1` (stereo partly drawn) [Example 144, 2-((2R,4R)-1-(4-((3,4-trans)-1-(5-Chloro-2-methoxypyridin-4-yl)-3-methylpiperidin-4-yloxy)-2,6-difluorophenyl)-4-methoxypyrrolidin-2-yl)acetic acid, TFA]: the EC50 on human GPR40 [1] was determined as 3400 nM; on human GPR40 [2] it was 2500 nM.
Regarding `CCOc1ccc(F)c(N2CCC(Oc3ccc(N4C[C@H](OC)[C@@H](C)[C@@H]4CC(=O)O)cc3)CC2)c1` [Example 121, 2-((2S,3S,4R)-1-(4-((1-(5-Ethoxy-2-fluorophenyl)piperidin-4-yl)oxy)phenyl)-4-methoxy-3-methylpyrrolidin-2-yl)acetic acid, TFA], the EC50 stood at 140 nM at human GPR40 [1] and 42 nM on human GPR40 [2].
For `COc1cc(N2CCC(Oc3ccc(N4C[C@H](OC)C[C@@H]4CC(=O)O)cc3F)C(C)C2)c(Cl)cn1` (stereo partly drawn) [Example 142, 2-((2R,4R)-1-(4-((3,4-trans)-1-(5-Chloro-2-methoxypyridin-4-yl)-3-methylpiperidin-4-yloxy)-3-fluorophenyl)-4-methoxypyrrolidin-2-yl)acetic acid, TFA], in that order: 270 nM and 31 nM.

For orientation: EC50 means the concentration needed to bring the measured effect to its halfway point.
